Calls of active or inactive are those of the source.
Assays:
[1] = molecular target: T1, Probable nicotinate-nucleotide adenylyltransferase (Staphylococcus aureus (strain N315), UniProt P65502); format: functional, Staphylococcus aureus subsp. aureus N315; details: read-out: IC50_Mean;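 on IC50 Mean: confirmatory dose-response retesting of NadD inhibitor hits first found in an ultra-high-throughput screen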
[2] = molecular target: Genome polyprotein (dengue virus type 2, UniProt P29990); experiment: Dengue-2 NS5 methyltransferase inhibitors, primary screen, biochemical, confirmation dose response (AID 588689); format: functional
[3] = molecular target: Glucose-6-phosphate 1-dehydrogenase (Homo sapiens, UniProt P11413); experiment: human G6PD enzyme inhibitors, dose response, selectivity assay for P. falciparum G6PD inhibitor project, biochemical, fluorescence (AID 504792); format: functional
[4] = molecular target: T1, Probable nicotinate-nucleotide adenylyltransferase; format: functional, Staphylococcus aureus subsp. aureus N315
[5] = molecular target: Mu-type opioid receptor (Homo sapiens, UniProt P35372); format: functional, cell-based;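 further: U2OS cells with beta-arrestin recruitment to OPRM1 by beta-gal complementation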
[6] = molecular target: 5-hydroxytryptamine receptor 2A (Mus musculus, UniProt P35363); format: functional, cell-based;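 further: CHO-K1 cells with tagged receptor and beta-arrestin; agonist potency measured as compound-induced activation of the receptor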
[7] = molecular target: Beta-galactosidase (Escherichia coli, UniProt Q8VNN2); experiment: Dose response counterscreen for EBI2 assay utilizing the enzyme, b-galactosidase.; format: functional
[8] = nonselective inhibitors of cellular cAMP signaling, dose response, counter-screen for MC4R biased antagonist project, cell-based, TR-FRET cAMP detection (AID 602305); format: functional;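 further: U2OS cells stimulated with forskolin near its EC80 as the cAMP inducer; potency is for inhibition of forskolin-stimulated cAMP signaling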
[9] = molecular target: T2, Rac GTPase-activating protein 1 (Homo sapiens, UniProt Q9H0H5); experiment: MgcRacGAP GTPase-activating activity inhibitors, confirmation, biochemical, ADP Hunter fluorescence, primary and confirmatory (AID 624330); format: functional
T2 sequence (Q9H0H5 whole entry): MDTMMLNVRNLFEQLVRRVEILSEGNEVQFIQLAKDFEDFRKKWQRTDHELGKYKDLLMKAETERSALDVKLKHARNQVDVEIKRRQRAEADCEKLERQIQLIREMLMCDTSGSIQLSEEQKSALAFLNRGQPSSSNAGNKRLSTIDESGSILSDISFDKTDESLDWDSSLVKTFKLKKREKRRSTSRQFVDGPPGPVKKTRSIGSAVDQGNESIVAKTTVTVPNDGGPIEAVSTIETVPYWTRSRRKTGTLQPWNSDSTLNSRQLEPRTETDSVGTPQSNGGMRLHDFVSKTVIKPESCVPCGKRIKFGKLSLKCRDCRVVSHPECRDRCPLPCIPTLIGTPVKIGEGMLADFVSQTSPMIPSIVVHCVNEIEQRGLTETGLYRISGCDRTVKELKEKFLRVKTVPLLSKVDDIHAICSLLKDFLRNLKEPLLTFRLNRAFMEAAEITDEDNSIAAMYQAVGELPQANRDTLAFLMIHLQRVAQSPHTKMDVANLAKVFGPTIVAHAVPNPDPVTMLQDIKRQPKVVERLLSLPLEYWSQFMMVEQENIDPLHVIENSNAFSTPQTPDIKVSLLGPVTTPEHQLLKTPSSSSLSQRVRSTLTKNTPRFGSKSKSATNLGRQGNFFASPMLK

[10] = molecular target: Melanocortin receptor 4 (Homo sapiens, UniProt P32245); experiment: MC4R antagonist potency on cAMP, dose response, cell-based, TR-FRET, biased antagonists (AID 602298); format: functional;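 further: antagonist potency against agonist-stimulated cAMP production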
[11] = molecular target: T3, Serine/threonine-protein phosphatase (Candida dubliniensis (strain CD36 / CBS 7987 / NCPF 3949 / NRRLY-17841) (Yeast), UniProt B9W6M3); experiment: calcineurin pathway inhibitors in yeast reporter, dose response, S. cerevisiae, CDRE-lacZ, luminescence, secondary (AID 2388); format: functional, cell-based;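 further: yeast reporter cells carrying a calcineurin-responsive lacZ construct stimulated with calcium chloride; luminescent beta-galactosidase reporter signal in whole cells rather than isolated phosphatase activity; potency for inhibition where a drop in reporter signal means calcineurin blockade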
T3 sequence (B9W6M3 whole entry): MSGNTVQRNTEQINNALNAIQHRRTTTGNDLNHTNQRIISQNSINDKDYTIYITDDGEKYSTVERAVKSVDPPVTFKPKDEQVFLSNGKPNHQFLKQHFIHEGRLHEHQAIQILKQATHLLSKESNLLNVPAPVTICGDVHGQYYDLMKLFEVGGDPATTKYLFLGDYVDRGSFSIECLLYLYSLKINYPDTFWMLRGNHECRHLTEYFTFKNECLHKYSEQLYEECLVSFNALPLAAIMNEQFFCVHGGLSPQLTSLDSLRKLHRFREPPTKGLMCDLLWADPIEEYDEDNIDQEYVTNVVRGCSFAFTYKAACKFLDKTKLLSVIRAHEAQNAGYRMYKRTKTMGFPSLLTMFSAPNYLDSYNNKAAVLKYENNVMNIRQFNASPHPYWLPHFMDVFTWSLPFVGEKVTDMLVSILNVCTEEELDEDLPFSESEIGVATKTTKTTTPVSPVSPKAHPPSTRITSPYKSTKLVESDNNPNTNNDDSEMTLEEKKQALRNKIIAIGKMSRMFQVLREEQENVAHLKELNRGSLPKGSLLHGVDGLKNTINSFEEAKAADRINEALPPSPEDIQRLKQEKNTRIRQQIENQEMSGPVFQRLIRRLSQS

[12] = C. albicans growth with fluconazole, confirmation, fluorescence, retest (AID 2467); format: functional, cell-based
[13] = test system: Vero; experiment: cells; format: functional; details: Chlorocebus sabaeus
[14] = NIH-3T3 fibroblast cytotoxicity, dose response, cytotoxicity control, cell-based, fluorescence, Alamar Blue, secondary assay (AID 2327); format: functional;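 further: NIH-3T3 mouse fibroblasts cultured with fluconazole at 8 µg/mL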
[15] = test system: Streptococcus sp. 'group A'; experiment: growth inhibition of control SK(-) GAS strain, dose response, counter-screen for streptokinase expression inhibitor project, luminescence, kanamycin, BacTiterGlo, confirmation (AID 1900); format: functional, organism-based
[16] = test system: Streptococcus; experiment: Group A Streptococcus viability loss, dose response, counter-screen for streptokinase expression inhibitor project, luminescence, BacTiterGlo (AID 1915); format: functional, organism-based;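 further: potency for reduction of bacterial viability or growth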
[17] = molecular target: ATP-dependent molecular chaperone HSP82 (Candida albicans (strain WO-1) (Yeast), UniProt C4YTQ8); experiment: loss of DOC-induced GRE-beta-galactosidase reporter signal, dose response, Hsp90 inhibitor project, S. cerevisiae, luminescence (AID 2400); format: functional, cell-based;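 further: beta-galactosidase luminescence from glucocorticoid response element reporter as proxy for Hsp90 function; inhibitor potency where signal loss means Hsp90 inhibition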
[18] = molecular target: T4, Fatty acid synthase (Homo sapiens, UniProt P49327); experiment: FAS thioesterase domain inhibitors, dose response, biochemical, kinetic fluorescence intensity (AID 624326); format: functional;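 further: rate of fluorescence rise from hydrolysis of a fluorogenic O-methyl fluorescein ester substrate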
[19] = molecular target: T4, Fatty acid synthase; experiment: FAS thioesterase domain inhibitors, dose response, biochemical, endpoint fluorescence intensity, uHTS hits (AID 624327); format: functional;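 further: fluorescence from hydrolysis of an O-methyl fluorescein acyl ester substrate by the enzyme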
[20] = molecular target: T5, Protein skinhead-1 (Caenorhabditis elegans, UniProt P34707); format: functional
T5 sequence (P34707 whole entry): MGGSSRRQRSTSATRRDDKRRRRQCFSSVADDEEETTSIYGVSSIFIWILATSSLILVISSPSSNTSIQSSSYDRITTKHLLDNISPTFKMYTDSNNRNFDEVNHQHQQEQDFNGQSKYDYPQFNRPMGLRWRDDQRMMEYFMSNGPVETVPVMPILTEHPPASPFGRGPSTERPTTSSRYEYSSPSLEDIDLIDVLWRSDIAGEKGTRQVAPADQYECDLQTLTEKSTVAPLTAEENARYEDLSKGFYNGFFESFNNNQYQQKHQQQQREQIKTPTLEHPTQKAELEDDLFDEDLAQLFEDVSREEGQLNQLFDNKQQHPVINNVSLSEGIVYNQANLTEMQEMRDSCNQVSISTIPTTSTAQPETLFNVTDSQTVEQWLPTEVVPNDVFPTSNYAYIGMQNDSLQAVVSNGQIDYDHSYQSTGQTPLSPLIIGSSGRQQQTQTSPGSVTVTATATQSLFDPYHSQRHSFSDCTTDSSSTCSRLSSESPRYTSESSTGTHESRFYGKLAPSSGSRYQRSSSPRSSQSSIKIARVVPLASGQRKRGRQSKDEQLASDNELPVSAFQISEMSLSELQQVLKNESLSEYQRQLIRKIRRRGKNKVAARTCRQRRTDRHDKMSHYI

[21] = cytotoxicity toward NIH3T3 fibroblasts, dose response, counter-screen, cell-based, ATP luminescence, mouse fibroblasts (AID 2010); format: functional;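 further: cells exposed to compound for about 90 hours before reading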
[22] = inhibitors of intracellular T. cruzi replication, confirmation, NIH3T3 host cells, beta-gal luminescence (AID 2044); format: functional, cell-based;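 further: intracellular parasites grown in NIH/3T3 mouse fibroblasts as host cells; luminescent beta-galactosidase reporter signal from transgenic T. cruzi replicating inside host cells; inhibitors lower the luminescence signal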
[23] = intracellular Trypanosoma cruzi inhibitors in host cells – cell-based, plate reader, cherry-pick samples, set 3, dose response (AID 651818); format: functional;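 further: compounds incubated with infected cells for about four days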
[24] = Luminescence Cell-Based Dose Response HTS to Identify Activators of Luciferase Translation or Activity in H4 […] Cells. [Related pubchem assays: 1829 (Project Summary), 1814 (Primary HTS)]; format: functional
[25] = Luminescence Cell-Based Dose Confirmation HTS to Identify Activators of 5'UTR Stem-Loop Driven Alpha-Synuclein mRNA Translation in H4 Neuroglioblastoma Cells. [Related pubchem assays: 1829 (Project Summary), 1814 (Primary HTS)]; format: functional
[26] = test system: H4; experiment: Luminescence Cell-Based Dose Response HTS to Identify Activators of 5'UTR Stem-Loop Driven Prion Protein mRNA Translation in H4 Neuroglioblastoma Cells. [Related pubchem assays: 1829 (Project Summary), 1814 (Primary HTS)]; format: functional; details: Homo sapiens

Chain of Mu-type opioid receptor (P35372 whole entry): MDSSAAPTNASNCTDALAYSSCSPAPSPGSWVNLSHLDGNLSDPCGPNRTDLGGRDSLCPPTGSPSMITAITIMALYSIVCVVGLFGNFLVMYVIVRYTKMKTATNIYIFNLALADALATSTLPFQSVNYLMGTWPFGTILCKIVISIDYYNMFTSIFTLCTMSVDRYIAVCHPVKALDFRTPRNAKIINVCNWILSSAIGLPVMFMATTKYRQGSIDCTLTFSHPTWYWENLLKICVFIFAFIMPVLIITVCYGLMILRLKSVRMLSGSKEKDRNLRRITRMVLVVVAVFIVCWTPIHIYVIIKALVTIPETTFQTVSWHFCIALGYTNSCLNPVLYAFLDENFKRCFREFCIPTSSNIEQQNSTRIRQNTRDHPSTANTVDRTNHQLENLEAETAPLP
Chain of 5-hydroxytryptamine receptor 2A (P35363 whole entry): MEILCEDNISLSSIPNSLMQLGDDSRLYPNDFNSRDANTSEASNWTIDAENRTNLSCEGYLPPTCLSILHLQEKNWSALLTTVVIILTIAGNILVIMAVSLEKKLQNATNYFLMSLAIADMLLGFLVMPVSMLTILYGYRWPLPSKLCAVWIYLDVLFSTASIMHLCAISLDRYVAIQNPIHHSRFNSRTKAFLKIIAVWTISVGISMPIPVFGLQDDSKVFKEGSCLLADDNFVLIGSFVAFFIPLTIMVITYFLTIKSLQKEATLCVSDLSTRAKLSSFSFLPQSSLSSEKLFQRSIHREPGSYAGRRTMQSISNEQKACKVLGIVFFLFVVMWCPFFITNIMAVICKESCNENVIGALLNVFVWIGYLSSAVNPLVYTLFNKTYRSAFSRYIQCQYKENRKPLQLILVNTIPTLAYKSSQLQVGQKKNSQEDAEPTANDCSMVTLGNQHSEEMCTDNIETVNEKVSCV
T4 sequence (P49327 whole entry, the tested form may be a part): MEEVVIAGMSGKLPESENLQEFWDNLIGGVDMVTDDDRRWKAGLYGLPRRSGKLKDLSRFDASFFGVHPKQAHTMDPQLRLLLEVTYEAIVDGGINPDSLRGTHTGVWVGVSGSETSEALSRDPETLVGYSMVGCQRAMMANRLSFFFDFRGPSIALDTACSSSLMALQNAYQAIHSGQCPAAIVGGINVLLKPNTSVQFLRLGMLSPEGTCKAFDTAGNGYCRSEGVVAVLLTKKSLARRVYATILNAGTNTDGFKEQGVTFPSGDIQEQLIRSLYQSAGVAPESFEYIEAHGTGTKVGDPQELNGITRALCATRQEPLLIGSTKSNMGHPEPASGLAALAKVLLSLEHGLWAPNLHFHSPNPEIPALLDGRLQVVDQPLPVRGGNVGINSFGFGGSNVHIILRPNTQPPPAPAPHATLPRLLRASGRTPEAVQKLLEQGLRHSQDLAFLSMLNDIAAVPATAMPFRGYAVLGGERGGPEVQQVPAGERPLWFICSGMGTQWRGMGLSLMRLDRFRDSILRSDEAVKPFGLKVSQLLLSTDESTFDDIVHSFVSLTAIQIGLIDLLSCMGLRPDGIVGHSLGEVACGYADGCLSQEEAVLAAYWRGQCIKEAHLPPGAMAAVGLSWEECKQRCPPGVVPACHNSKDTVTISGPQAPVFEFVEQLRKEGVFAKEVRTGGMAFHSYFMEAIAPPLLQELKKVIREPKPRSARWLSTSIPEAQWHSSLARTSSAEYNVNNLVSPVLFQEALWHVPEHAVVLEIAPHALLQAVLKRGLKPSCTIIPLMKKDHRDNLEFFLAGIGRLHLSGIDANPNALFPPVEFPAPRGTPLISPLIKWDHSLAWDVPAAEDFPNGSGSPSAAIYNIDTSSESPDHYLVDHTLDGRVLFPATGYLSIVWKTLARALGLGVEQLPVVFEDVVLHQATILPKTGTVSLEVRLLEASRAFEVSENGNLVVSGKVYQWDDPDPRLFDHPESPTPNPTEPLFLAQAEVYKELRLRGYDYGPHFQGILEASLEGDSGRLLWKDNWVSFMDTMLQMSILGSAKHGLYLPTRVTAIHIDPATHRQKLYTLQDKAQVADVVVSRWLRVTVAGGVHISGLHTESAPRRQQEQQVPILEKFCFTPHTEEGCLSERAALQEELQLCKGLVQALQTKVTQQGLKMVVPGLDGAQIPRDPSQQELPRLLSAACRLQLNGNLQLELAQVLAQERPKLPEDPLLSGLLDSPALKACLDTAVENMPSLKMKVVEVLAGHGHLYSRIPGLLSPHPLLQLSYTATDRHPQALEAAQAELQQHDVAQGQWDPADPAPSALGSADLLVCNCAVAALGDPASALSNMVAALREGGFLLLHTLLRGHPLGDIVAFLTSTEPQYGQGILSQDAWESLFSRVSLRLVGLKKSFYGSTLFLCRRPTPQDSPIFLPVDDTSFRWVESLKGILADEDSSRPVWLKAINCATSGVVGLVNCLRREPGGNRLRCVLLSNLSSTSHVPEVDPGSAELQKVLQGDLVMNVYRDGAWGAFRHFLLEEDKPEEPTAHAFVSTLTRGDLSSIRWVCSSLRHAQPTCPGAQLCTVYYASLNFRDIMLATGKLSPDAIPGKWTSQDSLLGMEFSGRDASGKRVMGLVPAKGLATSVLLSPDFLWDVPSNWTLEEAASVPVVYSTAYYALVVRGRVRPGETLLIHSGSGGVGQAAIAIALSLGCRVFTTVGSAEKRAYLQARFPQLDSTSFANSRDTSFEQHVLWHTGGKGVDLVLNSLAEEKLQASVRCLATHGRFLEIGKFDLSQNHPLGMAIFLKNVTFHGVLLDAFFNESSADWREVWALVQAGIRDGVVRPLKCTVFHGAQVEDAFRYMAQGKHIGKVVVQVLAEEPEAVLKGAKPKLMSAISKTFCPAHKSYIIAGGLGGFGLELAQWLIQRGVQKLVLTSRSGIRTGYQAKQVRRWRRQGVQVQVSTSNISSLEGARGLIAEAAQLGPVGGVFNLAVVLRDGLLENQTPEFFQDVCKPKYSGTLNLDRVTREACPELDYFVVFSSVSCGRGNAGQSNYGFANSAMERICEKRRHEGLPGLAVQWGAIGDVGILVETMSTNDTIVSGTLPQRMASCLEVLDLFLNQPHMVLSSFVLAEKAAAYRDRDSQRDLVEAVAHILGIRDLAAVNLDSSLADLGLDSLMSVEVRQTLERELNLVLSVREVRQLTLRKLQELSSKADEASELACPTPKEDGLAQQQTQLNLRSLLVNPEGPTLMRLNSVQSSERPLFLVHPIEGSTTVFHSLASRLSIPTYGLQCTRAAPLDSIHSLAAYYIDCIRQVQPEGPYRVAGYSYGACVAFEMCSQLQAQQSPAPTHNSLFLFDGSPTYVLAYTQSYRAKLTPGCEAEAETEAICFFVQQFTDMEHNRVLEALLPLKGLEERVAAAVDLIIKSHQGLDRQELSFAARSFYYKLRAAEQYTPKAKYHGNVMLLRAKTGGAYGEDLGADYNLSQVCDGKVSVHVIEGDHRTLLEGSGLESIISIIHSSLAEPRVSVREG
Chain of Beta-galactosidase (Q8VNN2 whole entry): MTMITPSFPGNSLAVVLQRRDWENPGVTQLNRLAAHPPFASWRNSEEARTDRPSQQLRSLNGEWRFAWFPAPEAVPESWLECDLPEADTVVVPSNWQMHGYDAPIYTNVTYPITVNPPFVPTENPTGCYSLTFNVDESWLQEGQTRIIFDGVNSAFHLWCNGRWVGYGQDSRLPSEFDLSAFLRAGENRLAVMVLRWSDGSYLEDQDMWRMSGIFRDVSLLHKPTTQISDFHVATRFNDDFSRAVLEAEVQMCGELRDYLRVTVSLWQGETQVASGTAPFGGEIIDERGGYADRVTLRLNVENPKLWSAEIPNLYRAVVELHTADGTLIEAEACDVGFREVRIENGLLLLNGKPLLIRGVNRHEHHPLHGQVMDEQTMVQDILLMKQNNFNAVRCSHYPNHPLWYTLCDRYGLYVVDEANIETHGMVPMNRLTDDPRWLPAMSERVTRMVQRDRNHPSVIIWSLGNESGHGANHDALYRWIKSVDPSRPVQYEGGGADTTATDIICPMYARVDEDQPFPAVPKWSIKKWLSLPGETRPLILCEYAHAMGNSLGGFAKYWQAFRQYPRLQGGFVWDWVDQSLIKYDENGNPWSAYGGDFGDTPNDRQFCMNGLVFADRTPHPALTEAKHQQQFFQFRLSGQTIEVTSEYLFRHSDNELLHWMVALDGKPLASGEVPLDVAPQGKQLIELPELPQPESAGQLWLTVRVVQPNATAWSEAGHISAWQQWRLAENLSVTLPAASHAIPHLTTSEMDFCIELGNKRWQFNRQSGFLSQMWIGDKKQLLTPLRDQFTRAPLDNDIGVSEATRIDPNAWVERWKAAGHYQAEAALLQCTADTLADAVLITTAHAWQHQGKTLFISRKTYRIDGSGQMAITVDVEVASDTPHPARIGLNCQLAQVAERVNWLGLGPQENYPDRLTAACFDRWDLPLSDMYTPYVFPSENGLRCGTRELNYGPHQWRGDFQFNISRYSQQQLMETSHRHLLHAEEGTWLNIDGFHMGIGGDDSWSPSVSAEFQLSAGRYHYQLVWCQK
T1 sequence (P65502 whole entry): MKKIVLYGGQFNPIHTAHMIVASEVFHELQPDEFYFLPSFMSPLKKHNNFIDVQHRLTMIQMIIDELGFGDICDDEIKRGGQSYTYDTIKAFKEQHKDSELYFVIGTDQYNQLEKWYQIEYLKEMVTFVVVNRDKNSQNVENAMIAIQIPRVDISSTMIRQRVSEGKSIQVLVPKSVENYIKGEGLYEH
Chain of Melanocortin receptor 4 (P32245 whole entry): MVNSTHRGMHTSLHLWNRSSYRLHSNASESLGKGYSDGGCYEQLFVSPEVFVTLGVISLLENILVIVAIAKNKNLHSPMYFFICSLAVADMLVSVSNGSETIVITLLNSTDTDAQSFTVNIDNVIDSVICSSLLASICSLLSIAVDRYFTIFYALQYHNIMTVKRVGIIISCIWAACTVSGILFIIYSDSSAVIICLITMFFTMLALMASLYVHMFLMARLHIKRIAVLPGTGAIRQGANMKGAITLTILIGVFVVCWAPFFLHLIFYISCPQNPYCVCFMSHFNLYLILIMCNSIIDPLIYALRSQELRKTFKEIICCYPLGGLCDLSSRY

[O-][S+](c1ccccc1O)[S+]([O-])c1ccccc1O (stereo not drawn)
IC50 [1]: 9.15 µM (active)
IC50 [2]: 68 µM (active)
IC50 [3]: 54.1 µM (inactive)
IC50 [4]: 3.33 µM (active)

NC1CCc2cc(O)c(O)cc2C1 (stereo not drawn)
EC50 [5]: 92.5 µM (inactive)
EC50 [6]: 0.0131 µM (active)
IC50 [3]: > 80 µM (inactive)

CNCCc1c[nH]c2ccc(O)cc12
EC50 [5]: 92.4 µM (inactive)
EC50 [6]: 1.73 µM (active)

CN(c1ccc(C(=O)N2CCN(Cc3ccccc3)CC2)cc1)S(=O)(=O)c1ccc(Cl)cc1
EC50 [5]: 92.4 µM (inactive)
EC50 [6]: 2.82 µM (active)

COCCN1C(=O)c2cc(C(=O)Nc3ccc(C)c(F)c3)ccc2C1Nc1ccc(C)c(F)c1 (stereo not drawn)
IC50 [7]: > 80 µM (inactive)

COC(=O)C1CCN(CCCOc2ccc(CN3CCN(c4ccc([N+](=O)[O-])cc4)CC3)cc2)CC1
EC50 [5]: 92.6 µM (inactive)
EC50 [6]: 0.57 µM (active)

CC1(C)CC(=O)C(C(C2=C(O)CC(C)(C)CC2=O)c2cccs2)C(=O)C1 (stereo not drawn)
IC50 [2]: 46.3 µM (active)
IC50 [8]: > 64.6 µM (inactive)
IC50 [9]: 73 µM (active)
IC50 [10]: 29.9 µM (inactive)

COc1ccc(N2CCN(C(=O)c3ccc4[nH]c(C)c(C)c4c3)CC2)cc1
IC50 [7]: > 80 µM (inactive)

C=CCOc1ccc(C(=O)/C=C2/C(=O)Nc3ccccc32)cc1
IC50 [7]: > 80 µM (inactive)

COc1ccc(N2CCN(C(=O)c3cc(=O)c4cc(C)ccc4o3)CC2)cc1
IC50 [7]: > 80 µM (inactive)

Cc1cccc2sc(NNC(=O)c3cc(-c4cccs4)nc4ccccc34)nc12
IC50 [1]: 26.7 µM (active)
EC50 [11]: > 180 µM (inactive)
EC50 [12]: 507 nM (active)
CC50 [13]: 11.5 µM (active)
EC50 [14]: 10.7 µM (inconclusive)
EC50 [15]: 889 nM (active)
IC50 [4]: 13.3 µM (active)
EC50 [16]: 2.14 µM (active)
EC50 [17]: 16.2 µM (active)

Cc1ccc2[nH]c(SCC(=O)Nc3ccc(F)c([N+](=O)[O-])c3)nc2c1
IC50 [18]: 8 µM (active)
IC50 [19]: 6.64 µM (active)

Cc1nnc(-c2cccc(Br)c2)c2cn(-c3cccc(Br)c3)nc12
IC50 [20]: > 100 µM (inactive)
EC50 [21]: > 60 µM (not active)
EC50 [22]: 1.65 µM (active)
IC50 [8]: > 64.6 µM (inactive)
IC50 [10]: > 64.6 µM (inactive)

COc1cc(OC)c(N2CC(C(=O)NCCC3=CCCCC3)CC2=O)cc1Cl (stereo not drawn)
IC50 [18]: 11.8 µM (active)
IC50 [19]: 9.83 µM (active)

N#CC(CCc1ccccc1[N+](=O)[O-])(CCc1ccccc1[N+](=O)[O-])C(N)=O
IC50 [18]: 12 µM (active)
IC50 [19]: 11.4 µM (active)

C[C@@H]1CN([C@@H](C)CO)C(=O)Cc2cc(NC(=O)Nc3ccc(F)cc3)ccc2O[C@@H]1CN(C)Cc1ccc(C(F)(F)F)cc1
AC50 [23]: 4.91 µM (active)

C[C@H](CO)N1C[C@H](C)[C@@H](CN(C)Cc2ccncc2)Oc2c(NC(=O)c3ccc(-c4nccs4)cc3)cccc2C1=O
AC50 [23]: 20 µM (inactive)

CC1(C(=O)Nc2ccc(Cl)c(Cl)c2)CCN1C(=O)CC1CCCC1 (stereo not drawn)
IC50 [18]: 4.39 µM (active)
IC50 [19]: 8.5 µM (active)

C[C@H]1CN([C@@H](C)CO)C(=O)Cc2cc(NC(=O)Nc3cccc4ccccc34)ccc2O[C@@H]1CN(C)Cc1ccc(-c2ccccc2)cc1
AC50 [23]: 7.08 µM (active)

Cc1noc(C)c1S(=O)(=O)Nc1ccc2c(c1)CC(=O)N([C@H](C)CO)C[C@@H](C)[C@@H](CN(C)Cc1ccc(C(F)(F)F)cc1)O2
AC50 [23]: 5.96 µM (active)

C[C@H](CO)N1C[C@H](C)[C@H](CN(C)Cc2ccc(C(F)(F)F)cc2)Oc2ccc(NC(=O)Nc3cccc4ccccc34)cc2CC1=O
AC50 [23]: 1.05 µM (active)

CN1CCc2c(sc(/N=C/c3cc(Cl)ccc3O)c2C#N)C1
EC50 [5]: 92.4 µM (inactive)
EC50 [6]: 76.1 µM (inactive)
EC50 [24]: 5.07 µM (active)
EC50 [25]: 7.13 µM (active)
EC50 [26]: 34.8 µM (active)

From ChEMBL document CHEMBL1201862, “PubChem BioAssay data set” (2004)
